Values of other authors in US20100129295A1, “Compositions for preventing and/or treating gingivitis” (priority 2008, published 2010).

Experiments:
TNF-α = TNF-α (Homo sapiens, UniProt P01375)
[1] = females taking supplements; 27 females with gingivitis compared with women without
[2] = test system: TNF-α induced cellular responses

Chain of TNF-α (P01375 whole entry, species assumed): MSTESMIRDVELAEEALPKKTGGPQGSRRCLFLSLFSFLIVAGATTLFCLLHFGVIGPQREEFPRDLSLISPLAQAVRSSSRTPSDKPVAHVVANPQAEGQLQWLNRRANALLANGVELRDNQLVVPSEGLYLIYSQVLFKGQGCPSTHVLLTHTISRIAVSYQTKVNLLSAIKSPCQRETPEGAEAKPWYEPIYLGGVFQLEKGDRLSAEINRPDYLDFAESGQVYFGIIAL

## C/C(O)=C(\C#N)C(=O)Nc1ccc(C(F)(F)F)cc1 [A 771726, teriflunomide]
Kupffer cells
  TNF-α and IL-1 from Kupffer cells: inhibits

## Cc1cc(C(=O)Nc2ccc(Cl)cc2)no1 [UTL-5d]
TNF-α
  inhibition of TNF-α: inhibition

## [Ca+2] [calcium]
[1]
  risk of gingivitis: reduced risk

## Cc1oncc1C(=O)Nc1ccc(C(F)(F)F)cc1 [leflunomide]
[2]
  TNF-α induced cellular responses: suppresses

## Cc1cc2nc3c(=O)[nH]c(=O)nc-3n(C[C@H](O)[C@H](O)[C@H](O)CO)c2cc1C [vitamin B2]
[1]
  risk of gingivitis: reduced risk
